This passage reports Normal melting temperature results from the NIST ThermoML archive (doi:10.1016/j.fluid.2012.05.003).

± gives the expanded uncertainty stated by the source.

For this data set the following is noted: Crystal; DTA.

As for `O=C(O)CNCP(=O)(O)O` [(phosphonomethyl)glycine], the Normal melting temperature came to 214.7 ± 0.5 °C.
